This note sets out measurements from patent US8148373B2, “Compounds” (AstraZeneca AB, priority 2008, dated 2012).

Structures are written as SMILES.

The target of assay [1] is T1, Adrenergic β2 (H292 cells) (Homo sapiens, UniProt P07550).
T1 construct: endogenous in cells; host or cells: H292 cells
The experiment in a line: Assay for Adrenergic β2 Mediated cAMP Production (concentration response, AlphaScreen cAMP detection). It counts as cell-based. To be noted: for EC50: cAMP production, 60 minutes at room temperature, 300 μM rolipram, read-out: β2 pEC50 (converted); for β2 Intrinsic activity: fraction relative to the maximum activity determined for formoterol. The procedure, abridged:
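H292 cells plated overnight, pre-treated with rolipram (300 μM final) 10 min, then compound 60 min at room temperature in HBSS/10 mM HEPES pH7.4/5 mM glucose, 1% DMSO. Lysate cAMP read by AlphaScreen against a cAMP standard curve; 4-parameter fit gives pEC50 and intrinsic activity as fraction of formoterol maximum.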
In general terms: Alpha assays give light when donor and acceptor beads are brought close together.

Assay [2] deals with T2, human muscarinic acetylcholine M3 receptor (M3-ACh) (Homo sapiens, UniProt P20309).
T2 construct: expressed in transfected cells; host or cells: CHO-K1 (Chinese Hamster Ovary) cell membranes
T2 sequence (P20309 whole entry): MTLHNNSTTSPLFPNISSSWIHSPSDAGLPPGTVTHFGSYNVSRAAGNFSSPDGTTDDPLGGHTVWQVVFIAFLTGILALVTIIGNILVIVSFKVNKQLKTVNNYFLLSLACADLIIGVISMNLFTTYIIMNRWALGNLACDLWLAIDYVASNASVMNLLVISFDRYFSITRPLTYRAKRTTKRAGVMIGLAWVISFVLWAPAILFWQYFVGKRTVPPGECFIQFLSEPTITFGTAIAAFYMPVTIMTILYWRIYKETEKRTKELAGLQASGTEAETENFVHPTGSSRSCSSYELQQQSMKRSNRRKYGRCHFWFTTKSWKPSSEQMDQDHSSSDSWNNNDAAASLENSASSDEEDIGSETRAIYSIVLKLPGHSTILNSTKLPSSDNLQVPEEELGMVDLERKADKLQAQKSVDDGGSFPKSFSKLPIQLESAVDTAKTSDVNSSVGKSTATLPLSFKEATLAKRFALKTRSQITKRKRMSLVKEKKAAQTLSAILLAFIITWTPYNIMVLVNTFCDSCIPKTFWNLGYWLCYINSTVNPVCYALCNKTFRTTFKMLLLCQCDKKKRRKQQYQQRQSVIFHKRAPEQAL
In words: Muscarinic 3 Receptor Binding Assay ([3H]NMS competition, SPA). The settings on record: [3H]NMS 0.1 nM, CHO-K1 cell membranes, 16 hours at room temperature; read-out: M3 pIC50 (converted). The procedure, abridged:
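Competition SPA binding of 0.1 nM [3H]NMS (quarter Kd) to membranes from CHO-K1 cells expressing human M3, in 20 mM HEPES pH 7.4, 5 mM MgCl2, 1% DMSO. Incubated 16 h at room temperature; non-specific binding with 1 µM atropine. pIC50 from 50% reduction of specific binding.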

T1 sequence (P07550 whole entry): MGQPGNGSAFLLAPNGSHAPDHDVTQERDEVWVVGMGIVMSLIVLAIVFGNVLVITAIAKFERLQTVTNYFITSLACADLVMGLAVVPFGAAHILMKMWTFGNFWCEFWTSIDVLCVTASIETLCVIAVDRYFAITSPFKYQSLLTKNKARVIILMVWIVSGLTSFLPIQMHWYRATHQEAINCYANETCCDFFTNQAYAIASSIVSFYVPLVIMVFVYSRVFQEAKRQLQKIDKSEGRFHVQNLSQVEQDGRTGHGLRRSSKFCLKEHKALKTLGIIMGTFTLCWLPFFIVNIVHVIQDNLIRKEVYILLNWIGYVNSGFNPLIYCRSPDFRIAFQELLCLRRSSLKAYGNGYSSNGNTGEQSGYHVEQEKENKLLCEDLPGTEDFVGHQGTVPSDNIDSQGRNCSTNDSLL

On to `CC(C)Cc1nc(C(=O)N2CCOC3(CCN(Cc4cccc(CCNC[C@H](O)c5ccc(O)c6[nH]c(=O)sc56)c4F)CC3)C2)cs1` [Example 72, (R)-7-(2-(2-Fluoro-3-((4-(2-isobutylthiazole-4-carbonyl)-1-oxa-4,9-diazaspiro[5.5]undecan-9-yl)methyl)phenethylamino)-1-hydroxyethyl)-4-hydroxybenzo[d]thiazol-2(3H)-one ditrifluoroacetate], for which, in assay [1], the EC50 was 7.94 nM and the “β2 Intrinsic activity” value was determined as 0.8. In addition, the IC50 in assay [2] is 10 nM.

Regarding `CC(C)c1ccc(C(=O)N2CCOC3(CCN(Cc4cccc(CCNC[C@H](O)c5ccc(O)c6[nH]c(=O)sc56)c4F)CC3)C2)s1` [Example 73, (R)-7-(2-(2-Fluoro-3-((4-(5-isopropylthiophene-2-carbonyl)-1-oxa-4,9-diazaspiro[5.5]undecan-9-yl)methyl)phenethylamino)-1-hydroxyethyl)-4-hydroxybenzo[d]thiazol-2(3H)-one ditrifluoroacetate], in assay [1], the EC50 was 7.94 nM and the “β2 Intrinsic activity” value is 0.9. In addition, the IC50 in assay [2] was 7.94 nM.

Turning to `CC(C)c1csc(C(=O)N2CCOC3(CCN(Cc4cccc(CCNC[C@H](O)c5ccc(O)c6[nH]c(=O)sc56)c4F)CC3)C2)c1` [Example 74, (R)-7-(2-(2-Fluoro-3-((4-(4-isopropylthiophene-2-carbonyl)-1-oxa-4,9-diazaspiro[5.5]undecan-9-yl)methyl)phenethylamino)-1-hydroxyethyl)-4-hydroxybenzo[d]thiazol-2(3H)-one ditrifluoroacetate], in assay [1], the EC50 was 12.6 nM and the “β2 Intrinsic activity” value came to 0.9. In addition, the IC50 in assay [2] is 20 nM.

As for `CC(C)c1nc(C(=O)N2CCOC3(CCN(Cc4ccc(Cl)c(CCNC[C@H](O)c5ccc(O)c6[nH]c(=O)sc56)c4)CC3)C2)cs1` [Example 75, (R)-7-(2-(2-Chloro-5-((4-(2-isopropylthiazole-4-carbonyl)-1-oxa-4,9-diazaspiro[5.5]undecan-9-yl)methyl)phenethylamino)-1-hydroxyethyl)-4-hydroxybenzo[d]thiazol-2(3H)-one ditrifluoroacetate], in assay [1], the EC50 was 25.1 nM and the “β2 Intrinsic activity” value is listed as 0.8. The IC50 in assay [2] was 2 nM.

In the case of `CC(C)c1csc(C(=O)N2CCOC3(CCN(Cc4cccc(CCNC[C@H](O)c5ccc(O)c6[nH]c(=O)ccc56)c4)CC3)C2)n1` [Example 76, (R)-8-Hydroxy-5-(1-hydroxy-2-(3-((4-(4-isopropylthiazole-2-carbonyl)-1-oxa-4,9-diazaspiro[5.5]undecan-9-yl)methyl)phenethylamino)ethyl)quinolin-2(1H)-one ditrifluoroacetate], in assay [1], the EC50 is 31.6 nM and the “β2 Intrinsic activity” value is 0.9. Also, in assay [2], the IC50 is 2 nM.

As to `CC(C)c1nc(C(=O)N2CCOC3(CCN(CCOc4ccc(CCNC[C@H](O)c5ccc(O)c6[nH]c(=O)ccc56)c(F)c4F)CC3)C2)cs1` [Example 77, (R)-5-(2-(2,3-Difluoro-4-(2-(4-(2-isopropylthiazole-4-carbonyl)-1-oxa-4,9-diazaspiro[5.5]undecan-9-yl)ethoxy)phenethylamino)-1-hydroxyethyl)-8-hydroxyquinolin-2(1H)-one ditrifluoroacetate], in assay [1], the EC50 is 79.4 nM and the “β2 Intrinsic activity” value was found to be 1. Besides, the IC50 in assay [2] was 2.51 nM.

Consider `CCCCc1nc(C(=O)N2CCOC3(CCN(Cc4cccc(CCNC[C@H](O)c5ccc(O)c6[nH]c(=O)sc56)c4F)CC3)C2)cs1` [Example 78, (R)-7-(2-(3-((4-(2-Butylthiazole-4-carbonyl)-1-oxa-4,9-diazaspiro[5.5]undecan-9-yl)methyl)-2-fluorophenethylamino)-1-hydroxyethyl)-4-hydroxybenzo[d]thiazol-2(3H)-one ditrifluoroacetate], for which, in assay [1], the EC50 is 15.8 nM and the “β2 Intrinsic activity” value was found to be 0.9. Further, the IC50 in assay [2] was 10 nM.

On to `O=C(c1cc2ccccc2s1)N1CCOC2(CCN(Cc3cccc(CCNC[C@H](O)c4ccc(O)c5[nH]c(=O)sc45)c3F)CC2)C1` [Example 79, (R)-7-(2-(3-((4-(Benzo[b]thiophene-2-carbonyl)-1-oxa-4,9-diazaspiro[5.5]undecan-9-yl)methyl)-2-fluorophenethylamino)-1-hydroxyethyl)-4-hydroxybenzo[d]thiazol-2(3H)-one ditrifluoroacetate], for which, in assay [1], the EC50 was 6.31 nM and the “β2 Intrinsic activity” value came out at 0.9. In assay [2], the IC50 was 126 nM.

As for `CC(C)c1nc(C(=O)N2CCOC3(CCN(Cc4cccc(CCNC[C@H](O)c5ccc(O)c6[nH]c(=O)sc56)c4Cl)CC3)C2)cs1` [Example 80, (R)-7-(2-(2-Chloro-3-((4-(2-isopropylthiazole-4-carbonyl)-1-oxa-4,9-diazaspiro[5.5]undecan-9-yl)methyl)phenethylamino)-1-hydroxyethyl)-4-hydroxybenzo[d]thiazol-2(3H)-one ditrifluoroacetate], in assay [1], the EC50 is 6.31 nM and the “β2 Intrinsic activity” value is reported as 0.8. The IC50 in assay [2] is 5.01 nM.

As to `CC(C)c1nc(C(=O)N2CCOC3(CCN(Cc4cccc(CCNC[C@H](O)c5ccc(O)c6[nH]c(=O)ccc56)c4Cl)CC3)C2)cs1` [Example 81, (R)-5-(2-(2-Chloro-3-((4-(2-isopropylthiazole-4-carbonyl)-1-oxa-4,9-diazaspiro[5.5]undecan-9-yl)methyl)phenethylamino)-1-hydroxyethyl)-8-hydroxyquinolin-2(1H)-one ditrifluoroacetate], in assay [1], the EC50 is 7.94 nM and the “β2 Intrinsic activity” value amounted to 0.7. Further, in assay [2], the IC50 was 6.31 nM.

In the case of `CC(C)c1cc(C(=O)N2CCOC3(CCN(Cc4cccc(CCNC[C@H](O)c5ccc(O)c6[nH]c(=O)sc56)c4)CC3)C2)cs1` [Example 82, (R)-4-Hydroxy-7-(1-hydroxy-2-(3-((4-(5-isopropylthiophene-3-carbonyl)-1-oxa-4,9-diazaspiro[5.5]undecan-9-yl)methyl)phenethylamino)ethyl)benzo[d]thiazol-2(3H)-one ditrifluoroacetate], in assay [1], the EC50 was 3.98 nM and the “β2 Intrinsic activity” value is reported as 0.9. For the same molecule, the IC50 in assay [2] is 0.398 nM.

As for `CC(C)c1cc(C(=O)N2CCOC3(CCN(Cc4cccc(CCNC[C@H](O)c5ccc(O)c6[nH]c(=O)ccc56)c4)CC3)C2)cs1` [Example 83, (R)-8-Hydroxy-5-(1-hydroxy-2-(3-((4-(5-isopropylthiophene-3-carbonyl)-1-oxa-4,9-diazaspiro[5.5]undecan-9-yl)methyl)phenethylamino)ethyl)quinolin-2(1H)-one ditrifluoroacetate], in assay [1], the EC50 was 12.6 nM and the “β2 Intrinsic activity” value came out at 0.8. Also, in assay [2], the IC50 is 0.501 nM.

Turning to `CC(C)Cc1nc(C(=O)N2CCOC3(CCN(Cc4cccc(CCNC[C@H](O)c5ccc(O)c6[nH]c(=O)sc56)c4)CC3)C2)cs1` [Example 84, (R)-4-Hydroxy-7-(1-hydroxy-2-(3-((4-(2-isobutylthiazole-4-carbonyl)-1-oxa-4,9-diazaspiro[5.5]undecan-9-yl)methyl)phenethylamino)ethyl)benzo[d]thiazol-2(3H)-one ditrifluoroacetate], in assay [1], the EC50 is 5.01 nM and the “β2 Intrinsic activity” value was determined as 0.9. Further, in assay [2], the IC50 was 0.794 nM.

With `CC(C)c1cccc(C(=O)N2CCOC3(CCN(Cc4cccc(CCNC[C@H](O)c5ccc(O)c6[nH]c(=O)sc56)c4F)CC3)C2)n1` [Example 85, (R)-7-(2-(2-Fluoro-3-((4-(6-isopropylpicolinoyl)-1-oxa-4,9-diazaspiro[5.5]undecan-9-yl)methyl)phenethylamino)-1-hydroxyethyl)-4-hydroxybenzo[d]thiazol-2(3H)-one ditrifluoroacetate], in assay [1], the EC50 is 7.94 nM and the “β2 Intrinsic activity” value was found to be 0.8. Also, the IC50 in assay [2] is 50.1 nM.

Regarding `CCc1cc(C(=O)N2CCOC3(CCN(Cc4cccc(CCNC[C@H](O)c5ccc(O)c6[nH]c(=O)sc56)c4)CC3)C2)cs1` [Example 86, (R)-7-(2-(3-((4-(5-Ethylthiophene-3-carbonyl)-1-oxa-4,9-diazaspiro[5.5]undecan-9-yl)methyl)phenethylamino)-1-hydroxyethyl)-4-hydroxybenzo[d]thiazol-2(3H)-one ditrifluoroacetate], in assay [1], the EC50 was 2.51 nM and the “β2 Intrinsic activity” value came out at 0.8. The IC50 in assay [2] is 0.158 nM.

As to `CCCc1nc(C(=O)N2CCOC3(CCN(Cc4cccc(CCNC[C@H](O)c5ccc(O)c6[nH]c(=O)sc56)c4)CC3)C2)cs1` [Example 87, (R)-4-Hydroxy-7-(1-hydroxy-2-(3-((4-(2-propylthiazole-4-carbonyl)-1-oxa-4,9-diazaspiro[5.5]undecan-9-yl)methyl)phenethylamino)ethyl)benzo[d]thiazol-2(3H)-one ditrifluoroacetate], in assay [1], the EC50 was 3.16 nM and the “β2 Intrinsic activity” value came to 0.9. The IC50 in assay [2] was 0.501 nM.

With `CC(C)c1nc(C(=O)N2CCOC3(CCN(Cc4cccc(CCCNC[C@H](O)c5ccc(O)c6[nH]c(=O)sc56)c4F)CC3)C2)cs1` [Example 88, (R)-7-(2-(3-(2-Fluoro-3-((4-(2-isopropylthiazole-4-carbonyl)-1-oxa-4,9-diazaspiro[5.5]undecan-9-yl)methyl)phenyl)propylamino)-1-hydroxyethyl)-4-hydroxybenzo[d]thiazol-2(3H)-one ditrifluoroacetate], in assay [1], the EC50 was 12.6 nM and the “β2 Intrinsic activity” value worked out at 1. In assay [2], the IC50 was 2 nM.
